From US20240316046A1, “ERK1/2 INHIBITOR COMBINATION THERAPY” (Asana Biosciences, LLC, priority 2021, published 2024)

Assays:
[1] = system: RAS/MAPK pathway (P-RSK, P-ERK) in BRAF V600E mutant CRC cell lines RKO and HT-29; experiment: Western blot of phosphorylation of RSK (P-RSK) and ERK (P-ERK), encorafenib in combination with MEK and ERK inhibitors; format: cell-based, human; conditions: plus BRAF inhibitor encorafenib; incubation up to 72 hours; Compound 1 at one-tenth the concentration used for the MEK and other ERK inhibitors; FIG. 3A-3D
Description: Treatment of two BRAF V600E mutant CRC cell lines, RKO and HT-29, with encorafenib in combination with the MEK inhibitor binimetinib, the ERK inhibitor Compound 1, the ERK inhibitor LY3214996, and the ERK inhibitor ravoxertinib. The Western blot gels depict phosphorylation of RSK (P-RSK) and ERK (P-ERK). Higher levels of phosphorylation are depicted by higher (i.e., darker) band intensity. Total GAPDH protein (GAPDH) serves as a loading control. ERK signaling activity is represented by the phosphorylation state of RSK (P-RSK), which is a downstream target of ERK. The column values indicate the duration of compound incubation of up to 72 hours. FIG. 3A-FIG. 3D.

[2] = system: encorafenib refractory-BRAF^V600E RKO and WiDr CDX models; experiment: In-vivo assay, tumor growth in xenograft (CDX) models; set-up: species or system Female Balb/c nude mice; conditions: compound 1 combined with encorafenib, oral, FIG. 2A, 2B
Description: The vehicle/control article, 0.5% Methyl Cellulose & 0.1% Tween 80 or 100 mM acetic acid in deionized water with pH adjustment to 4.8-5.0, was prepared and stored under ambient conditions throughout the study period.
The test article compound 1 was freshly prepared in vehicle of 0.5% Methyl Cellulose & 0.1% Tween 80 weekly and stored under ambient conditions. The combination agent, encorafenib, was freshly prepared in vehicle of 0.5% CMC and 0.5% Tween 80 weekly and stored at 2-8° C.
Female Balb/c nude mice were purchased from the Beijing Vital River Laboratory Animal Technology Co., Ltd. Mice were hosted at special pathogen-free (SPF) environment of vivarium facility and acclimated to their new environment for at least 3 days prior to initiation of any experiments. Mice were between 6-8 weeks of age at the time of implantation.
RKO is a human CRC tumor cell line that harbors a BRAF^V600E mutation. The RKO cell line was purchased from the American Type Culture Collection (ATCC® CRL-2577™). RKO cells were cultured in medium containing EMEM plus 10% Fetal Bovine Serum (FBS) supplemented with non-essential amino acids at 37° C. in an atmosphere of 5% CO2 in air. RKO cells in 200 μL cell suspensions containing 2×10^6 cells mixed with 50% Matrigel were implanted into mice subcutaneously. […]

[3] = system: cell lines harboring a BRAF^V600E mutation (RKO, HT-29, WiDr, MDST8, LIM2405 cells); experiment: In-vitro 3D cell viability assay (CellTiter-Glo 3D), dilution matrix of compound 1 versus encorafenib, BLISS model; format: cell-based, human; conditions: compound 1 combined with encorafenib, 5 days post-treatment, FIG. 1A-1E
Description: Cells were plated at a density of 1,000 (RKO, HT-29, WiDr, MDST8) or 5,000 (LIM2405) cells per well in a 96-well plate (Corning #3903). Cells were allowed to adhere overnight, and compound was added in a matrix format using a HP Tecan D300e digital dispenser (Switzerland). Compound 1 was added in a 1:3 dilution series (8-point dose response) from bottom to top of plate (rows B-H) and encorafenib was added in a 1:3 dilution series ([…] dose response) from right to left (columns 2-11). Final DMSO concentration was normalized across the plate. Cell viability was assessed 5-days post-treatment using Promega CellTiter-Glo 3D Cell Viability Assay reagent (#G9683) according to manufacturer's protocol.
RKO cells (FIG. 1A), HT-29 cells (FIG. 1B), WiDr cells (FIG. 1C), MDST8 cells (FIG. 1D), and LIM2405 (FIG. 1E) were treated with a dilution matrix of compound 1 versus encorafenib in 3D cell viability assays. Cell viability, as expressed as a percentage of viable cells relative to vehicle treated control, is shown in the matrix.

| Compound | RAS/MAPK pathway feedback reactivation (P-RSK, P-ERK) [1] | combination benefit in vivo (tumor growth curves) [2] | combination benefit in vitro (cell viability, BLISS model) [3] |
| --- | --- | --- | --- |
| Cc1cnc(NC2CCOCC2)nc1-n1cnc(C(=O)N[C@H](CN)c2cc(F)cc(Cl)c2)c1 [Compound 1, (S)-N-(2-amino-1-(3-chloro-5-fluorophenyl)ethyl)-1-(5-methyl-2-((tetrahydro-2H-pyran-4-yl)amino)pyrimidin-4-yl)-1H-imidazole-4-carboxamide] | blocked the RAS/MAPK pathway feedback reactivation | combination benefit | combination benefit |
| COC(=O)N[C@@H](C)CNc1nccc(-c2cn(C(C)C)nc2-c2cc(Cl)cc(NS(C)(=O)=O)c2F)n1 [encorafenib, Encorafenib, reference compound] |  | combination benefit | combination benefit |
